Results from publication PMC7175181 (Biomolecules, 2020).
Entries after “also recorded” stand apart in the source; their conditions may differ. No end group written: not given here.

Experiments:
[1] = ref [15],[16]; cited from earlier work
Source text: Hemorphins are endogenous peptides that are produced from beta hemoglobin. Hemorphins of various lengths (4–10 amino acids) have been identified so far. These peptides are mainly produced in the plasma, brain, cerebrospinal fluid, and spinal cord. The decapeptide LVV-hemorphin-7 ([…]) is considered to be the longest form of hemorphin and is found abundantly in the mammalian nervous system. […] Numerous studies have reported various biological activities of hemor ...

ACE [2] = target: T1, ACE (Homo sapiens, UniProt P12821); experiment: In vitro ACE inhibition assay (ACE Kit-WST); format: biochemical; conditions: for IC50: ACE Kit-WST, 1 h at 37 °C, absorbance 450 nm, non-linear regression, mean of three independent experiments (n = 3); for Comparison of IC50 (ACE inhibition): n = 3, one-way ANOVA and Sidak's multiple-comparisons test
T1 construct: purchased Dojindo Laboratories ACE Kit-WST
Method: The inhibition of ACE was measured using the ACE Kit-WST (Dojindo Laboratories, Mashiki-machi, Japan). Custom synthesized hemorphin peptides ([…], […], YPWTQRF, and YPWTRRF) were purchased from New England Peptide (Gardner, MA, USA). Indicator working solution and enzyme working solution were prepared according to the manufacturer’s instructions. 10 µL of each dose of hemorphin was added to the wells of a 96-well microplate. 20 µL and 40 µL of deionized water were added in blank 1 and blank 2 wells. 20 µL of the substrate buffer was added to each well, followed by 20 µL of enzyme working solution in all of the sample wells and blank 1. The plate was incubated for 1 h at 37 °C. After the incubation period, 200 µL of indicator working solution was added to each well and then incubated at room temperature for 5 min. After incubation, plate absorbance was measured at 450 nm using Glomax Discover Microplate Reader (Promega, Madison, WI, USA). The inhibition of ACE was calculated using the following equation: Inhibition rate (%) = (Ablank1 − Asample)/(Ablank1 − Ablank2) × 100.
From the obtained data, IC50 was calculated using Prism 7 (GraphPad, San Diego, CA, USA) from a non-linear regression plot of ACE inhibition (%) against peptide concentration (µM).
Nonlinear regression was used to generate dose–response curves in Prism 7 (GraphPad, San Diego, CA, USA). The observed data are presented as mean ± SEM (Standard Error of the Mean). One-way or two-way analysis of variance (ANOVA), as appropriate, were carried out and a comparison of means was performed by Sidak’s multiple-comparisons test to estimate the statistical significance between the different treatments.

[3] = cited from earlier work
Source text: Angiotensin-I converting enzyme (ACE) is a zinc metallopeptidase that is found in many tissues and biological fluids and it is an important player in regulating RAAS and kallikrein-kinnin system (KKS). There are two main mechanisms by which ACE causes hypertension. Firstly, ACE cleaves two amino acids from the decapeptide angiotensin I to produce the octapeptide angiotensin II, which is a strong vasoconstrictor. Secondly, ACE is involved in the degradation of bradykinnin, a potent vasodilator [5, 6]. ACE is associated with hypertension and remains an important target for the discovery of an ...

ACE [4] = conditions: ref [53]; cited from earlier work
ACE [5] = target: T1, ACE; parameters: method as in 2 sources, one per row (each row's own in cited_ref): ref [54] = [54]; PMID 7945362; doi:10.1006/bbrc.1994.2447; 54. Zhao Q. Sannier F. Garreau I. Guillochon D. Piot J.M. Inhibition and inhibition kinetics of angiotensin converting enzyme activity by hemorphins, isolated from a peptic bovine hemoglobin hydrolysa ||| ref [24] = [24]; PMID 12182948; doi:10.1016/S0196-9781(02)00083-9; 24. Fruitier-Arnaudin I. Cohen M. Bordenave S. Sannier F. Piot J.M. Comparative effects of angiotensin IV and two hemorphins on angiotensin-converting enzyme activity Peptides 2002 23 1465 1470 10.101; conditions: ref [54]; cited from earlier work
Method: An ACE inhibition assay was performed to evaluate the IC50 of these peptides to investigate this further.

T1 sequence (P12821 30-1306, species assumed): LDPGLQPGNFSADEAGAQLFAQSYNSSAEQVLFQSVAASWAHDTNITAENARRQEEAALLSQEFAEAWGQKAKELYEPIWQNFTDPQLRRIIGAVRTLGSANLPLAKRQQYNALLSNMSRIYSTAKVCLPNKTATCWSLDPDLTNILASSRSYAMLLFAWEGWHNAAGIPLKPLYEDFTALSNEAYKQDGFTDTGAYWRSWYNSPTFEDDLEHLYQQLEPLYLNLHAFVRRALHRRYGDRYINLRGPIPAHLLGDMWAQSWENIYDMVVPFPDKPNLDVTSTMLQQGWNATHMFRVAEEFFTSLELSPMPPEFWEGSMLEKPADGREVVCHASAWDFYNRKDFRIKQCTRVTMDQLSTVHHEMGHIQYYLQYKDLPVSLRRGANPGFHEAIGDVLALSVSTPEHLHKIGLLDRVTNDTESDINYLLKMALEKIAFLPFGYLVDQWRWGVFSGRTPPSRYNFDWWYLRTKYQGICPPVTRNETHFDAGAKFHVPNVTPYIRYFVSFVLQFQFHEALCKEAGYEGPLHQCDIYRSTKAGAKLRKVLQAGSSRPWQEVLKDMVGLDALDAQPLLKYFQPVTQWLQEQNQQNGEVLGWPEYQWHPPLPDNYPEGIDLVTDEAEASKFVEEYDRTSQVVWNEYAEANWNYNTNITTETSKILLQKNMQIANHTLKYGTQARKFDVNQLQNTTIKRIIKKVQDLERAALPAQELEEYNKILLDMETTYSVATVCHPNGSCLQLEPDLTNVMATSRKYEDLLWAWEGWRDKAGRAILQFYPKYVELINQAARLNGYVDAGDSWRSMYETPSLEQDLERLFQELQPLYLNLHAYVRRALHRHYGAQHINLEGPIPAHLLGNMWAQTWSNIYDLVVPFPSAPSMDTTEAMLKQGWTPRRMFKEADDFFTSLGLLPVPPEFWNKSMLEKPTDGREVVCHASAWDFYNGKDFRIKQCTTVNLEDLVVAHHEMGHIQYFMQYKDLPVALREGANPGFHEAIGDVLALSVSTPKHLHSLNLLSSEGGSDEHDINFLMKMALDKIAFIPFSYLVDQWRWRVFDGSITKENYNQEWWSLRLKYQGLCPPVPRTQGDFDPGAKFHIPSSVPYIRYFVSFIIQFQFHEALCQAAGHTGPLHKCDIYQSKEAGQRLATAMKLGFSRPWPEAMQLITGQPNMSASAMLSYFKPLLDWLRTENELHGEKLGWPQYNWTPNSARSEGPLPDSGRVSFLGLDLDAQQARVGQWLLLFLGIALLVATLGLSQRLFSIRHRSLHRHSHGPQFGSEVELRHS

Row | Molecule | IC50 (ACE [2]) | Comparison of IC50 (ACE inhibition) (ACE [2]) | also measured
1 | CC(C)C[C@H](N)C(=O)N[C@H](C(=O)N[C@H](C(=O)N[C@@H](Cc1ccc(O)cc1)C(=O)N1CCC[C@H]1C(=O)N[C@@H](Cc1c[nH]c2ccccc12)C(=O)N[C@H](C(=O)N[C@@H](CCC(N)=O)C(=O)N[C@@H](CCCNC(=N)N)C(=O)N[C@@H](Cc1ccccc1)C(=O)O)[C@@H](C)O)C(C)C)C(C)C | 12.6 µM | significantly lower than that of YPWTQRF (25.894 µM) | Stability compared to other hemorphins [1]: most stable
2 | CC(C)C[C@H](N)C(=O)N[C@H](C(=O)N[C@H](C(=O)N[C@@H](Cc1ccc(O)cc1)C(=O)N1CCC[C@H]1C(=O)N[C@@H](Cc1c[nH]c2ccccc12)C(=O)N[C@H](C(=O)N[C@@H](CCCNC(=N)N)C(=O)N[C@@H](CCCNC(=N)N)C(=O)N[C@@H](Cc1ccccc1)C(=O)O)[C@@H](C)O)C(C)C)C(C)C | 6.6 µM | lower than YPWTRRF (9.310 µM); also recorded: the difference between LVVYPWTRRF and YPWTRRF was not significant | Comparison of IC50 (ACE inhibition) (ACE [2]; listed as camel LVV-hemorphin-7): significantly less than non-camel LVV-hemorphin-7 (12.649 µM) (p < 0.05, n = 3)
3 | C[C@H](CS)C(=O)N1CCC[C@H]1C(=O)O [captopril] |  |  | Side effects [3]: cough, kidney problems, angioedema, and allergic reactions
4 | C[C@H](N[C@@H](CCc1ccccc1)C(=O)O)C(=O)N1CCC[C@H]1C(=O)O [enalaprilat] |  |  | Affinity for ACE compared to lisinopril (ACE [4]): lower affinity when compared to lisinopril
5 | VVYPWTQRF |  |  | ACE inhibitory activity compared to other hemorphins (ACE [5]): the removal of the N-terminus leucine significantly decreased the ACE inhibition activity of VVYPWTQRF in comparison to LVVYPWTQRF
6 | YPWTQRF [YPWTQRF] | 25.9 µM |  | 
7 | YPWTRRF [YPWTRRF] | 9.31 µM | significantly lower IC50 | Comparison of IC50 (ACE inhibition) (ACE [2]; listed as camel hemorphin-7): significantly lower than the non-camel hemorphin-7 (25.894 µM) (p < 0.001, n = 3)
